Measurements published in patent publication US20250100997A1, “PYRIDAZINYL AMINO DERIVATIVES AS ALK5 INHIBITORS” (CHIESI FARMACEUTICI S.P.A., priority 2022, published 2025).
pKi: −log10 of the molar value.

Biological target: T1, human ALK5 (recombinant TGF β1 N-term GST-tagged, 80-end) (Homo sapiens, UniProt P36897)
T1 construct: human ALK5 (recombinant TGF β1 N-term GST-tagged, 80-end); GST (N); purchased
T1 sequence (P36897 80-503 limits assumed): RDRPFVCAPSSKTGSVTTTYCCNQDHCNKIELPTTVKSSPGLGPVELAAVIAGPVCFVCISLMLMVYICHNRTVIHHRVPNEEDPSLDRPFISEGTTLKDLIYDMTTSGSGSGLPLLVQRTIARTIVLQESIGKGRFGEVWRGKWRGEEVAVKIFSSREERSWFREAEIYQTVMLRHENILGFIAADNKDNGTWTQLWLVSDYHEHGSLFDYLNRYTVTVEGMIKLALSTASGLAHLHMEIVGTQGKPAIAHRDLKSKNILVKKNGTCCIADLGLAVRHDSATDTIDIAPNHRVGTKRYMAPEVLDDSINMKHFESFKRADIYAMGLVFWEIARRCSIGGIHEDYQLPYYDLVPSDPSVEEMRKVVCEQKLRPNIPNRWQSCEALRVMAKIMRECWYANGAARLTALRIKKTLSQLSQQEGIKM
Test: ADP-GLO kinase assay, biochemical ALK5 assay
Details: pIC50 converted to pKi using the Cheng-Prusoff equation, ATP at Km, or high ATP (30-fold Km) for very potent compounds, 25° C.
Description: The enzymatic activity of compounds of the present invention was monitored measuring the formation of ADP using the ADP-GLO Kinases assay. Following the incubation of the purified enzyme, a substrate and ATP, the produced ADP was converted into ATP, which in turn was converted into light by Ultra-Glo Luciferase. The luminescent signal positively correlated with ADP amount and kinase activity. Briefly, the kinase reaction was performed by incubating 2.6 nM of the purified, commercially available human ALK5 (recombinant TGF β1 N-term GST-tagged, 80-end), a final concentration of TGFβ1 peptide 94.5 μM (Promega, T36-58) and ultra-pure ATP (Promega V915B). The ATP concentration was set at the Km value (concentration of substrate which permits the enzyme to achieve half maximal velocity (Vmax)) of ALK5 (0.5 μM). Compound and ALK5 kinase were mixed and incubated for 15 mins. Reactions were initiated by addition of ATP at a final concentration in the assay of […]. After an incubation of 120 min, the reaction was stopped, and ADP production detected with ADP-Glo kit according to manufacturer's indications. To overcome the assay wall limit for very potent compounds the assay protocol was changed by using a high ATP concentration (30-fold Km). Compounds and ALK5 kinase were mixed for 15 min and the reaction initiated by addition of TGFβ1 peptide and ATP at a final concentration in the assay of 15 μM. After an incubation of 60 min, the kinase reaction was stopped, and ADP production detected with ADP-Glo kit according to manufacturer's indications.
All reaction and incubation steps were performed at 25° C. and the assays were performed in 384-well format and validated using a selection of reference compounds tested in 11-point concentration-response curve.
Results were expressed as pIC50 (negative logarithm of IC50) and subsequently converted to pKi (negative logarithm of […]) using the Cheng-Prusoff equation. The higher the value of pKi, the greater the inhibition of ALK5 activity.

Structure (SMILES) | pKi
CN1CCN(CCC(=O)Nc2cc(Nc3cc(-c4cc(Cl)ccc4F)nnc3C3CC(=O)N(C)C3)ccn2)CC1 (centres unmarked) [Example 23, N-(4-((6-(5-chloro-2-fluorophenyl)-3-(1-methyl-5-oxopyrrolidin-3-yl)pyridazin-4-yl)amino)pyridin-2-yl)-3-(4-methylpiperazin-1-yl)propanamide] | 8.50 to 9.00
Fc1ccc(Cl)cc1-c1cc(Nc2ccc3ncsc3c2)c(C2=CCNCC2)nn1 [Example C1, N-[6-(5-chloro-2-fluorophenyl)-3-(1,2,3,6-tetrahydropyridin-4-yl)pyridazin-4-yl]-1,3-benzothiazol-6-amine, reference compound] | 7.22
